The record followed here is US10351546B2, “Pyridin-3-yl acetic acid derivatives as inhibitors of human immunodeficiency virus replication” (priority 2015, dated 2019).

In one assay the test system is NL-RLuc virus. Kind of assay: Inhibition of HIV replication (NL-RLuc luciferase reporter virus in MT-2 cells). Type of assay: cell-based. As to conditions: Human immunodeficiency virus 1, MT2, 120 h, read-out: Activity. An outline of the steps: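 MT-2 cells were infected with NL4-3-derived virus carrying Renilla luciferase in place of part of nef, in RPMI/10% FBS, with serial compound dilutions. Luciferase read after 5 days of multicycle replication. EC50 from the median effect equation, at least 2 experiments.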
In general terms: A reporter such as luciferase makes a cellular process visible.
In the case of `Cc1cc(F)ccc1CN1CCc2cc(-c3c(CNCC4CCOCC4)nc(C)c([C@H](OC(C)(C)C)C(=O)O)c3N3CCC(C)(C)CC3)ccc2C1` [Example 127, (S)-2-(tert-Butoxy)-2-(4-(4,4-dimethylpiperidin-1-yl)-5-(2-(4-fluoro-2-methylbenzyl)-1,2,3,4-tetrahydroisoquinolin-6-yl)-2-methyl-6-((((tetrahydro-2H-pyran-4-yl)methyl)amino)methyl)pyridin-3-yl)acetic acid], the EC50 was less than 0.1 µM. With `Cc1cccc(Cl)c1CN1CCc2cc(-c3c(CN4CCCCC4)nc(C)c([C@H](OC(C)(C)C)C(=O)O)c3N3CCC(C)(C)CC3)ccc2C1` [Example 177, (S)-2-(tert-Butoxy)-2-(5-(2-(2-chloro-6-methylbenzyl)-1,2,3,4-tetrahydroisoquinolin-6-yl)-4-(4,4-dimethylpiperidin-1-yl)-2-methyl-6-(piperidin-1-ylmethyl)pyridin-3-yl)acetic acid], the EC50 is less than 0.1 µM.

As to `CSCc1nc(C)c([C@H](OC(C)(C)C)C(=O)O)c(N2CCC(C)(C)CC2)c1-c1ccc(OCCc2ccc(F)cc2)cc1` [Example 17, (S)-2-(tert-Butoxy)-2-(4-(4,4-dimethylpiperidin-1-yl)-5-(4-(4-fluorophenethoxy)phenyl)-2-methyl-6-((methylthio)methyl)pyridin-3-yl)acetic acid], the EC50 was less than 0.1 µM. Consider `Cc1cc(F)ccc1CN1CCc2cc(-c3c(CN)nc(C)c([C@H](OC(C)(C)C)C(=O)O)c3N3CCC(C)(C)CC3)ccc2C1` [Example 139, (S)-2-(6-(Aminomethyl)-4-(4,4-dimethylpiperidin-1-yl)-5-(2-(4-fluoro-2-methylbenzyl)-1,2,3,4-tetrahydroisoquinolin-6-yl)-2-methylpyridin-3-yl)-2-(tert-butoxy)acetic acid], for which the EC50 is less than 0.1 µM. In the case of `Cc1nc(Cc2ccc(F)cc2)c(-c2ccc(OCCc3ccc(F)cc3)cc2)c(N2CCC(C)(C)CC2)c1[C@H](OC(C)(C)C)C(=O)O` [Example 170, (S)-2-(tert-Butoxy)-2-(4-(4,4-dimethylpiperidin-1-yl)-6-(4-fluorobenzyl)-5-(4-(4-fluorophenethoxy)phenyl)-2-methylpyridin-3-yl)acetic acid], the EC50 is less than 0.1 µM. On to `Cc1nc(COC2CCOCC2)c(-c2ccc(OCCc3ccc(F)cc3)cc2)c(N2CCC(C)(C)CC2)c1[C@H](OC(C)(C)C)C(=O)O` [Example 12, (S)-2-(tert-Butoxy)-2-(4-(4,4-dimethylpiperidin-1-yl)-5-(4-(4-fluorophenethoxy)phenyl)-2-methyl-6-(((tetrahydro-2H-pyran-4-yl)oxy)methyl)pyridin-3-yl)acetic acid], for which the EC50 was less than 0.1 µM.

Regarding `Cc1cc(F)ccc1CN1CCc2cc(-c3c(CNC(=O)C(=O)N(C)C)nc(C)c([C@H](OC(C)(C)C)C(=O)O)c3N3CCC(C)(C)CC3)ccc2C1` [Example 142, (S)-2-(tert-Butoxy)-2-(6-((2-(dimethylamino)-2-oxoacetamido)methyl)-4-(4,4-dimethylpiperidin-1-yl)-5-(2-(4-fluoro-2-methylbenzyl)-1,2,3,4-tetrahydroisoquinolin-6-yl)-2-methylpyridin-3-yl)acetic acid], the EC50 is less than 0.1 µM. As for `Cc1nc(NS(C)(=O)=O)c(-c2ccc(OCCc3ccc(F)cc3)cc2)c(N2CCC(C)(C)CC2)c1[C@H](OC(C)(C)C)C(=O)O` [Example 48, (S)-2-(tert-Butoxy)-2-(4-(4,4-dimethylpiperidin-1-yl)-5-(4-(4-fluorophenethoxy)phenyl)-2-methyl-6-(methylsulfonamido)pyridin-3-yl)acetic acid], the EC50 was less than 0.1 µM. `Cc1nc(CCCOC(C)C)c(-c2ccc(OCCc3ccc(F)cc3)cc2)c(N2CCC(C)(C)CC2)c1[C@H](OC(C)(C)C)C(=O)O` [Example 56, (S)-2-(tert-Butoxy)-2-(4-(4,4-dimethylpiperidin-1-yl)-5-(4-(4-fluorophenethoxy)phenyl)-6-(3-isopropoxypropyl)-2-methylpyridin-3-yl)acetic acid]: the EC50 was less than 0.1 µM. Turning to `Cc1nc(CNCc2ccccn2)c(-c2ccc(OCCc3ccc(F)cc3)cc2)c(N2CCC(C)(C)CC2)c1[C@H](OC(C)(C)C)C(=O)O` [Example 95, (S)-2-(tert-Butoxy)-2-(4-(4,4-dimethylpiperidin-1-yl)-5-(4-(4-fluorophenethoxy)phenyl)-2-methyl-6-(((pyridin-2-ylmethyl)amino)methyl)pyridin-3-yl)acetic acid], the EC50 is less than 0.1 µM. For `COCCNCc1nc(C)c([C@H](OC(C)(C)C)C(=O)O)c(N2CCC(C)(C)CC2)c1-c1ccc(OCCc2ccc(F)cc2)cc1` [Example 68, (S)-2-(tert-Butoxy)-2-(4-(4,4-dimethylpiperidin-1-yl)-5-(4-(4-fluorophenethoxy)phenyl)-6-(((2-methoxyethyl)amino)methyl)-2-methylpyridin-3-yl)acetic acid], the EC50 is less than 0.1 µM.

Regarding `COc1ccccc1NCc1nc(C)c([C@H](OC(C)(C)C)C(=O)O)c(N2CCC(C)(C)CC2)c1-c1ccc(OCCc2ccc(F)cc2)cc1` [Example 91, (S)-2-(tert-Butoxy)-2-(4-(4,4-dimethylpiperidin-1-yl)-5-(4-(4-fluorophenethoxy)phenyl)-6-(((2-methoxyphenyl)amino)methyl)-2-methylpyridin-3-yl)acetic acid], the EC50 was less than 0.1 µM. Consider `Cc1nc(COC(C)C)c(-c2ccc(OCCc3ccc(F)cc3)cc2)c(N2CCC(C)(C)CC2)c1[C@H](OC(C)(C)C)C(=O)O` [Example 9, (S)-2-(tert-Butoxy)-2-(4-(4,4-dimethylpiperidin-1-yl)-5-(4-(4-fluorophenethoxy)phenyl)-6-(isopropoxymethyl)-2-methylpyridin-3-yl)acetic acid], for which the EC50 was less than 0.1 µM. Take `Cc1cc(F)ccc1CN1CCc2cc(-c3c(CN4CCC4)nc(C)c([C@H](OC(C)(C)C)C(=O)O)c3N3CCC(C)(C)CC3)ccc2C1` [Example 117, (S)-2-(6-(Azetidin-1-ylmethyl)-4-(4,4-dimethylpiperidin-1-yl)-5-(2-(4-fluoro-2-methylbenzyl)-1,2,3,4-tetrahydroisoquinolin-6-yl)-2-methylpyridin-3-yl)-2-(tert-butoxy)acetic acid]: the EC50 is less than 0.1 µM. Same read-out and setting: next, `Cc1ncn(Cc2nc(C)c([C@H](OC(C)(C)C)C(=O)O)c(N3CCC(C)(C)CC3)c2-c2ccc(OCCc3ccc(F)cc3)cc2)n1` [Example 31, (S)-2-(tert-Butoxy)-2-(4-(4,4-dimethylpiperidin-1-yl)-5-(4-(4-fluorophenethoxy)phenyl)-2-methyl-6-((3-methyl-1H-1,2,4-triazol-1-yl)methyl)pyridin-3-yl)acetic acid]: less than 0.1 µM; `Cc1nc(COCC2CCC2)c(-c2ccc(OCCc3ccc(F)cc3)cc2)c(N2CCC(C)(C)CC2)c1[C@H](OC(C)(C)C)C(=O)O` [Example 29, (S)-2-(tert-Butoxy)-2-(6-((cyclobutylmethoxy)methyl)-4-(4,4-dimethylpiperidin-1-yl)-5-(4-(4-fluorophenethoxy)phenyl)-2-methylpyridin-3-yl)acetic acid]: less than 0.1 µM; `Cc1nc(C#N)c(-c2ccc(OCCc3ccc(F)cc3)cc2)c(N2CCC(C)(C)CC2)c1[C@H](OC(C)(C)C)C(=O)O` [Example 162, (S)-2-(tert-Butoxy)-2-(6-cyano-4-(4,4-dimethylpiperidin-1-yl)-5-(4-(4-fluorophenethoxy)phenyl)-2-methylpyridin-3-yl)acetic acid]: less than 0.1 µM.

Take `CCOCCOCc1nc(C)c(-c2ccc(OCCc3ccc(F)cc3)cc2)c(N2CCC(C)(C)CC2)c1[C@H](OC(C)(C)C)C(=O)O` [Example 108, (S)-2-(tert-Butoxy)-2-(4-(4,4-dimethylpiperidin-1-yl)-2-((2-ethoxyethoxy)methyl)-5-(4-(4-fluorophenethoxy)phenyl)-6-methylpyridin-3-yl)acetic acid]: the EC50 is less than 0.1 µM.

On to `Cc1nc(Cl)c(-c2ccc(OCCc3ccc(F)cc3)cc2)c(N2CCC(C)(C)CC2)c1[C@H](OC(C)(C)C)C(=O)O` (single isomer, unassigned) [Example 52], for which the EC50 is less than 0.1 µM.

`CC(=O)NCc1nc(C)c([C@H](OC(C)(C)C)C(=O)O)c(N2CCC(C)(C)CC2)c1-c1ccc2c(c1)CCN(Cc1ccc(F)cc1C)C2` [Example 140, (S)-2-(6-(Acetamidomethyl)-4-(4,4-dimethylpiperidin-1-yl)-5-(2-(4-fluoro-2-methylbenzyl)-1,2,3,4-tetrahydroisoquinolin-6-yl)-2-methylpyridin-3-yl)-2-(tert-butoxy)acetic acid]: the EC50 was less than 0.1 µM. Regarding `Cc1nc(CN2CCSCC2)c(-c2ccc(OCCc3ccc(F)cc3)cc2)c(N2CCC(C)(C)CC2)c1[C@H](OC(C)(C)C)C(=O)O` [Example 79, (S)-2-(tert-Butoxy)-2-(4-(4,4-dimethylpiperidin-1-yl)-5-(4-(4-fluorophenethoxy)phenyl)-2-methyl-6-(thiomorpholinomethyl)pyridin-3-yl)acetic acid], the EC50 was less than 0.1 µM. As for `CCOCCOCc1nc(C)c([C@H](OC(C)(C)C)C(=O)O)c(N2CCC(C)(C)CC2)c1-c1ccc2c(c1)CCN(Cc1ccc(F)cc1C)C2` [Example 160, (S)-2-(tert-Butoxy)-2-(4-(4,4-dimethylpiperidin-1-yl)-6-((2-ethoxyethoxy)methyl)-5-(2-(4-fluoro-2-methylbenzyl)-1,2,3,4-tetrahydroisoquinolin-6-yl)-2-methylpyridin-3-yl)acetic acid], the EC50 was less than 0.1 µM. `CC[N+](CC)(CC)Cc1nc(C)c([C@H](OC(C)(C)C)C(=O)O)c(N2CCC(C)(C)CC2)c1-c1ccc2c(c1)CCN(Cc1ccc(F)cc1C)C2` [Example 125, (S)—N-((5-(tert-Butoxy(carboxy)methyl)-4-(4,4-dimethylpiperidin-1-yl)-3-(2-(4-fluoro-2-methylbenzyl)-1,2,3,4-tetrahydroisoquinolin-6-yl)-6-methylpyridin-2-yl)methyl)-N,N-diethylethanaminium]: the EC50 is less than 0.1 µM.

The same assay, now with this note: Human immunodeficiency virus 1, MT2, 120 h, read-out: EC50 μM.
Take `COc1ccccc1NCc1nc(C)c([C@H](OC(C)(C)C)C(=O)O)c(N2CCC(C)(C)CC2)c1-c1ccc(OCCc2ccc(F)cc2)cc1` [Example 91, (S)-2-(tert-Butoxy)-2-(4-(4,4-dimethylpiperidin-1-yl)-5-(4-(4-fluorophenethoxy)phenyl)-6-(((2-methoxyphenyl)amino)methyl)-2-methylpyridin-3-yl)acetic acid]: the EC50 was determined as 0.018 µM. For the compound `Cc1ncn(Cc2nc(C)c([C@H](OC(C)(C)C)C(=O)O)c(N3CCC(C)(C)CC3)c2-c2ccc(OCCc3ccc(F)cc3)cc2)n1` [Example 31, (S)-2-(tert-Butoxy)-2-(4-(4,4-dimethylpiperidin-1-yl)-5-(4-(4-fluorophenethoxy)phenyl)-2-methyl-6-((3-methyl-1H-1,2,4-triazol-1-yl)methyl)pyridin-3-yl)acetic acid], the EC50 was 0.009 µM.

As to `Cc1nc(C#N)c(-c2ccc(OCCc3ccc(F)cc3)cc2)c(N2CCC(C)(C)CC2)c1[C@H](OC(C)(C)C)C(=O)O` [Example 162, (S)-2-(tert-Butoxy)-2-(6-cyano-4-(4,4-dimethylpiperidin-1-yl)-5-(4-(4-fluorophenethoxy)phenyl)-2-methylpyridin-3-yl)acetic acid], the EC50 worked out at 0.008 µM. The same measure, in the same setting: with `CC[N+](CC)(CC)Cc1nc(C)c([C@H](OC(C)(C)C)C(=O)O)c(N2CCC(C)(C)CC2)c1-c1ccc2c(c1)CCN(Cc1ccc(F)cc1C)C2` [Example 125, (S)—N-((5-(tert-Butoxy(carboxy)methyl)-4-(4,4-dimethylpiperidin-1-yl)-3-(2-(4-fluoro-2-methylbenzyl)-1,2,3,4-tetrahydroisoquinolin-6-yl)-6-methylpyridin-2-yl)methyl)-N,N-diethylethanaminium] the figure was 0.016 µM.
